In publication PMC5458547, “Discovery of first-in-class reversible dual small molecule inhibitors against G9a and DNMTs in hematological malignancies” (Nature Communications, 2017) one finds remaining binding and GI50 data, which are given here for one molecule.

The target of one test is T1, CSF1R (Homo sapiens, UniProt P07333).
T1 construct: purchased DiscoverX KINOMEscan (kinases); BPS Bioscience (epigenetic targets)
Description: KINOMEscan kinase profiling. Format: binding. Conditions: read-out: Percent Control. The procedure:
(§1) Kinase Selectivity Profiling
(§2) (out of which 90 are non-mutant kinases) was performed at DiscoverRx (http://www.discoverx.com/home) using the KINOMEscan™ screening platform at a test concentration of 10 µM. Results for primary screen […]
(§3) positive control signal) / (negative control signal – positive control signal) *100, where negative control corresponds to DMSO treatment (100%) and positive control to the signal obtained with a control competitive compound (0%). […]
(§4) using the Hill equation. Each target was assayed in duplicate. […]

The next test has as its target T2, INSR (Homo sapiens, UniProt P06213).
T2 construct: purchased DiscoverX KINOMEscan (kinases); BPS Bioscience (epigenetic targets)
Description: KINOMEscan kinase profiling. Conditions: read-out: Percent Control. Format: binding. As to the method:
as §1, §2, §3, §4

Another test concerns the target T3, PIK3C2B (Homo sapiens, UniProt O00750).
T3 construct: purchased DiscoverX KINOMEscan (kinases); BPS Bioscience (epigenetic targets)
Description: KINOMEscan kinase profiling. The conditions noted are these: read-out: Percent Control. Format: binding. The procedure: as §1, §2, §3, §4

For another test, the target named is T4, DYRK1B (Homo sapiens, UniProt Q9Y463).
T4 construct: purchased DiscoverX KINOMEscan (kinases); BPS Bioscience (epigenetic targets)
T4 sequence (Q9Y463 whole entry): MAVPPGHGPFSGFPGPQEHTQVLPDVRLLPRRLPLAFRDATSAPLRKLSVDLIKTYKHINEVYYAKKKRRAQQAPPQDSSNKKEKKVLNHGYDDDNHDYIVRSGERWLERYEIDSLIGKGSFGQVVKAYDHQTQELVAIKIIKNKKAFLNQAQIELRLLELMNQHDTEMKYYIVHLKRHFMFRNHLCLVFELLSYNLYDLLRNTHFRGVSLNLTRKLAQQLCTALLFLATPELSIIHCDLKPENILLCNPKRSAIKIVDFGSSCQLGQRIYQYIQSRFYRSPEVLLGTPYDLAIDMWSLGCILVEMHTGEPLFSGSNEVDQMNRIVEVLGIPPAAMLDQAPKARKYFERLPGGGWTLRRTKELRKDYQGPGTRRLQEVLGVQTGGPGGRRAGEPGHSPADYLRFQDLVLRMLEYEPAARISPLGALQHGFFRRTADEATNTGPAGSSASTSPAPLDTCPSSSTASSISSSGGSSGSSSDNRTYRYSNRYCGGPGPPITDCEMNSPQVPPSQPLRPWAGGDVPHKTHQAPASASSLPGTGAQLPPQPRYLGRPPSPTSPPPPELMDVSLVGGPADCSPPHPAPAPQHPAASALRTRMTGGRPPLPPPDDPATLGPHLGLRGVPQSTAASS
Description: KINOMEscan kinase profiling. Format: binding. Conditions: read-out: Percent Control. As to the method: as §1, §2, §3, §4

Another test has as its target T5, CSNK1G2 (Homo sapiens, UniProt P78368).
T5 construct: purchased DiscoverX KINOMEscan (kinases); BPS Bioscience (epigenetic targets)
Description: KINOMEscan kinase profiling. Format: binding. Conditions: read-out: Percent Control. The procedure:
as §1, §2, §3, §4

For a further test, the target named is T6, EGFR(L858R) (Homo sapiens, UniProt P00533, L858R).
T6 construct: purchased DiscoverX KINOMEscan (kinases); BPS Bioscience (epigenetic targets)
T6 sequence (P00533 25-1210 L858R): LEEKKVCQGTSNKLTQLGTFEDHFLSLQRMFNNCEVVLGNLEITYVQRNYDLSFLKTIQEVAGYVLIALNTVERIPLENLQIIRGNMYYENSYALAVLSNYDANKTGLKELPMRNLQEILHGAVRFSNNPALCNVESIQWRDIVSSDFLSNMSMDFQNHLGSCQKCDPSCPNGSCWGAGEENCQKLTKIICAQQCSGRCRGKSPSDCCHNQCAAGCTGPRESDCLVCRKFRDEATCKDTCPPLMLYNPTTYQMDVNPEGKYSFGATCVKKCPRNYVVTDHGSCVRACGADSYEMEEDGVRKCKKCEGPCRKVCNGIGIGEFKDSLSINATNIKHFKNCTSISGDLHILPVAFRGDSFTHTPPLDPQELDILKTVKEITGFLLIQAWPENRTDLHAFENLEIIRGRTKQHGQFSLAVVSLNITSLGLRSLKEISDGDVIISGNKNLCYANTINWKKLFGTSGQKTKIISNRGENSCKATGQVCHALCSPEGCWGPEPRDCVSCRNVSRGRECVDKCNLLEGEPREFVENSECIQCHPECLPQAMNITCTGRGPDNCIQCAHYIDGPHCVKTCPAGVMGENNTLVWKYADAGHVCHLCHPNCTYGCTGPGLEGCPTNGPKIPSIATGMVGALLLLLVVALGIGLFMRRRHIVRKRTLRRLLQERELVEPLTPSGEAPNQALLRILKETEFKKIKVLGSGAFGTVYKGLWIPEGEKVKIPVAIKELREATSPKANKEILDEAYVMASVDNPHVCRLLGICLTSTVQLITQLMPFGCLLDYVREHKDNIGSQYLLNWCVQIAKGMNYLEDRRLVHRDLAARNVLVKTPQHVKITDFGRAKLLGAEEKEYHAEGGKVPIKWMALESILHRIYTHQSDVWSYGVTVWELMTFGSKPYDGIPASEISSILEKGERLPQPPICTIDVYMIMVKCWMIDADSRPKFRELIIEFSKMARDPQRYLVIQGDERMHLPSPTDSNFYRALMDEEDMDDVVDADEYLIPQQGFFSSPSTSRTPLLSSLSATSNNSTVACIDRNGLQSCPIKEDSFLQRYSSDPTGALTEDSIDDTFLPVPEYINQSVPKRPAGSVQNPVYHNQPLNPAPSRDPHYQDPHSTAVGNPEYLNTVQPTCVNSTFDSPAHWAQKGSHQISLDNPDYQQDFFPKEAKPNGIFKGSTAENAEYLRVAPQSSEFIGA
Description: KINOMEscan kinase profiling. Format: binding. Conditions: read-out: Percent Control. The procedure:
as §1, §2, §3, §4

For test [1], the target named is T7, ABL1(T315I)-phosphorylated (Homo sapiens, UniProt P00519, T315I).
T7 construct: purchased DiscoverX KINOMEscan (kinases); BPS Bioscience (epigenetic targets)
Description: KINOMEscan kinase profiling. Type of test: binding. Conditions: read-out: Percent Control. As to the method:
as §1, §2, §3, §4

The next test has as its target T8, SRPK3 (Homo sapiens, UniProt Q9UPE1).
T8 construct: purchased DiscoverX KINOMEscan (kinases); BPS Bioscience (epigenetic targets)
Description: KINOMEscan kinase profiling. Format: binding. Conditions: read-out: Percent Control. The procedure:
as §1, §2, §3, §4

For the next test, the target named is T9, PIM2 (Homo sapiens, UniProt Q9P1W9).
T9 construct: purchased DiscoverX KINOMEscan (kinases); BPS Bioscience (epigenetic targets)
The test is described as follows: KINOMEscan kinase profiling. Type of test: binding. Conditions: read-out: Percent Control. As to the method:
as §1, §2, §3, §4

A further test concerns the target T10, CDK9 (Homo sapiens, UniProt P50750).
T10 construct: purchased DiscoverX KINOMEscan (kinases); BPS Bioscience (epigenetic targets)
Description: KINOMEscan kinase profiling. Type of test: binding. Conditions: read-out: Percent Control. As to the method: as §1, §2, §3, §4

The target in the next test is T11, ACVR1B (Homo sapiens, UniProt P36896).
T11 construct: purchased DiscoverX KINOMEscan (kinases); BPS Bioscience (epigenetic targets)
Description: KINOMEscan kinase profiling. Type of test: binding. Conditions: read-out: Percent Control. As to the method: as §1, §2, §3, §4

The next test addresses T12, DCAMKL1 (Homo sapiens, UniProt O15075).
T12 construct: purchased DiscoverX KINOMEscan (kinases); BPS Bioscience (epigenetic targets)
The test is described as follows: KINOMEscan kinase profiling. Type of test: binding. Conditions: read-out: Percent Control. As to the method:
as §1, §2, §3, §4

The target of the next test is T13, JNK2 (Homo sapiens, UniProt P45984).
T13 construct: purchased DiscoverX KINOMEscan (kinases); BPS Bioscience (epigenetic targets)
T13 sequence (P45984 whole entry): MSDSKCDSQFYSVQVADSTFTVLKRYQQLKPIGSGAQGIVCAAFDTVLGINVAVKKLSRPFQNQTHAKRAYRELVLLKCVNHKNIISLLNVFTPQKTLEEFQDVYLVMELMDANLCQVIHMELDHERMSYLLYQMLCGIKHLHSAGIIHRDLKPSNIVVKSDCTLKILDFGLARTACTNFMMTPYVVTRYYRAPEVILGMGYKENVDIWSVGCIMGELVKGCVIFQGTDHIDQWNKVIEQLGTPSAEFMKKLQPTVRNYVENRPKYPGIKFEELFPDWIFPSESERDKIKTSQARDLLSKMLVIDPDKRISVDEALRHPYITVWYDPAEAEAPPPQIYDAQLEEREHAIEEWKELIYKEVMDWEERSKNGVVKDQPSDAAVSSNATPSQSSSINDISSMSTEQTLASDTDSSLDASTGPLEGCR
Description: KINOMEscan kinase profiling. The conditions noted are these: read-out: Percent Control. Type of test: binding. The procedure: as §1, §2, §3, §4

Another test addresses T14, PIM3 (Homo sapiens, UniProt Q86V86).
T14 construct: purchased DiscoverX KINOMEscan (kinases); BPS Bioscience (epigenetic targets)
Description: KINOMEscan kinase profiling. Conditions: read-out: Percent Control. Type of test: binding. As to the method: as §1, §2, §3, §4

The target in another test is T15, MKNK1 (Homo sapiens, UniProt Q9BUB5).
T15 construct: purchased DiscoverX KINOMEscan (kinases); BPS Bioscience (epigenetic targets)
The test is described as follows: KINOMEscan kinase profiling. Type of test: binding. The conditions noted are these: read-out: Percent Control. As to the method:
as §1, §2, §3, §4

The target of the next test is T16, MLK1 (Homo sapiens, UniProt P80192).
T16 construct: purchased DiscoverX KINOMEscan (kinases); BPS Bioscience (epigenetic targets)
Description: KINOMEscan kinase profiling. Format: binding. The conditions noted are these: read-out: Percent Control. As to the method:
as §1, §2, §3, §4

The target of the next test is T17, PLK1 (Homo sapiens, UniProt P53350).
T17 construct: purchased DiscoverX KINOMEscan (kinases); BPS Bioscience (epigenetic targets)
T17 sequence (P53350 whole entry): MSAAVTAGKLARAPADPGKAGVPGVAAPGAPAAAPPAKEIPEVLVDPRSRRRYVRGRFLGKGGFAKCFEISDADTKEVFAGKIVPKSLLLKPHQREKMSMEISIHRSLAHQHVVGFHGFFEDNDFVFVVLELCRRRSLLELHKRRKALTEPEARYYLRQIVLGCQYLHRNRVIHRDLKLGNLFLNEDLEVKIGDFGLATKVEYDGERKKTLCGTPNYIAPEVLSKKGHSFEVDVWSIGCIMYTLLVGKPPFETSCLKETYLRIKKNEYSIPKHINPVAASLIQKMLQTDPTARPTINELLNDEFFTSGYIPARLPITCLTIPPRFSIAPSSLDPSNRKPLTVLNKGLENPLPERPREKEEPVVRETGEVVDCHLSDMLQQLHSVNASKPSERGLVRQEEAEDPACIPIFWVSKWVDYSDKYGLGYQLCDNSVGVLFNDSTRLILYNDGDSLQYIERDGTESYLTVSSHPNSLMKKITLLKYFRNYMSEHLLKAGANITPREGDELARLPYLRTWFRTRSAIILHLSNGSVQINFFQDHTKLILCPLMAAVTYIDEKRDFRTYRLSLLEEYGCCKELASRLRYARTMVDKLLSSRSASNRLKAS
The test is described as follows: KINOMEscan kinase profiling. Type of test: binding. Conditions: read-out: Percent Control. As to the method: as §1, §2, §3, §4

Test [2] deals with T18, JAK2(JH1domain-catalytic) (Homo sapiens, UniProt O60674).
T18 construct: JAK2(JH1domain-catalytic); purchased DiscoverX KINOMEscan (kinases); BPS Bioscience (epigenetic targets)
T18 sequence (O60674 840-1132 limits assumed): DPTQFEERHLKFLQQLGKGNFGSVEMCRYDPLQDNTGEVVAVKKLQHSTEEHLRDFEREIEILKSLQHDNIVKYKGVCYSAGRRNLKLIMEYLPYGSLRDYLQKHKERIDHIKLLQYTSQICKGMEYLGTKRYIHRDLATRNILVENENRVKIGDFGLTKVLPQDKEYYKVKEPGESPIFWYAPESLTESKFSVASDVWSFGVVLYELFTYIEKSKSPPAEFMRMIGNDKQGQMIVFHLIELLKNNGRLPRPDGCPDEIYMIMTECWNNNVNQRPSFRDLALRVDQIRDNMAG
The test is described as follows: KINOMEscan kinase profiling. Type of test: binding. Conditions: read-out: Percent Control. As to the method:
as §1, §2, §3, §4

The target of a further test is T19, TSSK1B (Homo sapiens, UniProt Q9BXA7).
T19 construct: purchased DiscoverX KINOMEscan (kinases); BPS Bioscience (epigenetic targets)
Description: KINOMEscan kinase profiling. Format: binding. The conditions noted are these: read-out: Percent Control. The procedure: as §1, §2, §3, §4

The next test concerns the target T20, MEK1 (Homo sapiens, UniProt Q02750).
T20 construct: purchased DiscoverX KINOMEscan (kinases); BPS Bioscience (epigenetic targets)
The test is described as follows: KINOMEscan kinase profiling. Type of test: binding. Conditions: read-out: Percent Control. As to the method:
as §1, §2, §3, §4

The next test relates to MD-901. The test is described as follows: Cell proliferation assay (MTS). Type of test: cell-based. Conditions: Homo sapiens; ABC-DLBCL, 48 h.

T8 sequence (Q9UPE1 whole entry): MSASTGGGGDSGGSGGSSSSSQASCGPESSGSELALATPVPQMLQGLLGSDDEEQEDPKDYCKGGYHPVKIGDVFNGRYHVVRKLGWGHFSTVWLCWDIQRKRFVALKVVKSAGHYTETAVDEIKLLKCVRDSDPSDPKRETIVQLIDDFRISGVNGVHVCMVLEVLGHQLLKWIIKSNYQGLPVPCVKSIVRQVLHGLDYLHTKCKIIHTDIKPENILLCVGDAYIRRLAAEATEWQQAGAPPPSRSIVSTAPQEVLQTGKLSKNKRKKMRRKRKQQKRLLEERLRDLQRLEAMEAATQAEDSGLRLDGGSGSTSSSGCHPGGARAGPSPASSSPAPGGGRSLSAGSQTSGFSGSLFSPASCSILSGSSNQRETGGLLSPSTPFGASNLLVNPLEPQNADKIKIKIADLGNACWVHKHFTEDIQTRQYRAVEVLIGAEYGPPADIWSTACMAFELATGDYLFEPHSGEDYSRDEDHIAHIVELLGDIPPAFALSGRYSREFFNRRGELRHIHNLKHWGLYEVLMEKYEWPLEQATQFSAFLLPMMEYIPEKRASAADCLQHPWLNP
T20 sequence (Q02750 whole entry): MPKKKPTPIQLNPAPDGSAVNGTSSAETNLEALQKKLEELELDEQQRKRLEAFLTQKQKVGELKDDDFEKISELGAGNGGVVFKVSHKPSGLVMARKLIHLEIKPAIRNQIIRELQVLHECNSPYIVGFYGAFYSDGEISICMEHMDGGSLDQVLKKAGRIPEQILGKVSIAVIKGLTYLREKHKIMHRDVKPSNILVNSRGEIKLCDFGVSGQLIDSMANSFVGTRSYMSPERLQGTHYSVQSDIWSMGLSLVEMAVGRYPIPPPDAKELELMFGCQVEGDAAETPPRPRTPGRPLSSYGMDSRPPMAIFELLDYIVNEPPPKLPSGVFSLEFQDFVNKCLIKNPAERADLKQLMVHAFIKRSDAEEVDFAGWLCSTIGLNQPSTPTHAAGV
T10 sequence (P50750 whole entry): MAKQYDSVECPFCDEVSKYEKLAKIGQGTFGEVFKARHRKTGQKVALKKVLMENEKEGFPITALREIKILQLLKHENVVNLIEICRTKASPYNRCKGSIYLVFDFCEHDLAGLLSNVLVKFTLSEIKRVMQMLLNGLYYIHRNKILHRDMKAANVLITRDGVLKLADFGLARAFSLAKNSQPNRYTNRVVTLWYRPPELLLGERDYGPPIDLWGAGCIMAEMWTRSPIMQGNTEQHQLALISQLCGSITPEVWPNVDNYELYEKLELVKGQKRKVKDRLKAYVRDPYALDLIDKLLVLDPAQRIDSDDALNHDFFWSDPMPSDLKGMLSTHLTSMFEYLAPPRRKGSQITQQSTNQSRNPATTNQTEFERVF

As usually defined, the GI50 is the concentration at which growth is held to half of that of the control. Take `COc1cc2c(NC3CCN(C)CC3)cc(-c3ccc(C)o3)nc2cc1OCCCN1CCCC1` [CM-272, 6-methoxy-2-(5-methyl-2-furyl)-N-(1-methyl-4-piperidyl)-7-(3-pyrrolidin-1-ylpropoxy)quinolin-4-amine]: the remaining binding at 10 µM at CSF1R came out at 100%; at INSR it was 5.1%; on PIK3C2B it was 61%; at DYRK1B it was 100%; on CSNK1G2, 95%; on EGFR(L858R), 100%. The remaining binding at 10 µM in test [1] turned out to be 25%; at SRPK3 it was 100%; at PIM2, 93%; at CDK9 it was 96%; at ACVR1B, 81%; at DCAMKL1, 22%. Also, the remaining binding at 10 µM amounted to 34% at JNK2; 81% on PIM3; 1.4% on MKNK1; 100% at MLK1; 31% at PLK1; 10% in [2]. The remaining binding at 10 µM at TSSK1B is 100%; at MEK1, 45%. The same molecule yielded a GI50 in the test with MD-901 of 1460 nM.
